Experiments:
A2058 cells = test: Cell adhesion measurement, xCELLigence impedimetry; format: cell-based, human; conditions: Delta CI at 3 h normalized to control, three parallels
Text: The first crucial steps in metastasis cascade are the impaired adhesion contacts and in parallel the increased motility of tumor cells. These two events substantially provide for tumor cells to detach from the primary tumor and migrate to the surrounding tissue. Besides the tumor-selective antiproliferative/cytotoxic activity of the conjugates, they could be also desired to have an ability to interfere with the dissemination of cancer cells by modulating their adhesion and migration. In order to evaluate the conjugates as antimetastatic therapeutics, their effects on melanoma cell adhesion were investigated by the impedance-based xCELLigence System. The cell adhesion modulator effects of compounds were characterized by Delta Cell index values. […]
The effect of Dau-GnRH-III conjugates on cell adhesion of model cell was assessed using the xCELLigence SP System ( ACEA Biosciences, San Diego, CA, USA).
The adhesion assay, analogous to the description in [5], was started with a background measurement as mentioned above in the section “Cell proliferation and cytotoxicity measurement”. […] The adhesion of A2058 cells was monitored every 20 sec for at least 12 h at 10 kHz.
The attachment and spreading of model cell were characterized by a time-course study of the Delta CI values. The Delta CI values were calculated by the integrated software (RTCA 2.0). […]

A2058 melanoma cells = test: Cell cycle analysis, propidium iodide flow cytometry; format: cell-based, human; conditions: 10^−5 M, 24 h
Description: Since the conjugates had no or minor apoptotic effect, the cell cycle kinetics of the cells treated with GnRH-III-based conjugates was also investigated to reveal the mechanism of growth inhibition of these conjugates. The distribution of the control and treated cells in the different cell cycle phases was analyzed by measurements of relative DNA contents of individual cells by flow cytometry after propidium iodide (Sigma-Aldrich, St. Louis, MO, USA) staining. […] In parallel, a decrease in the proportions of cells in G1/G0 and G2/M phase and an increase in the percentage of S phase cells were also observed.
Figure 4 Effects of conjugates and daunorubicin (Dau) on cell cycle progression of A2058 melanoma cells. The model cell was incubated with the compounds at 10^−5 M concentration for 24 h. Results are expressed as a percentage of cells in the sub-G1 area and the major phases (G1/G0, S and G2/M) of the cell cycle. Data shown in the figure represent mathematical averages of two parallel measurements. […]
Jose, CA, USA) was used to measure the DNA content of cells with propidium iodide (Sigma-Aldrich, St. Louis, MO, USA) intercalated stoichiometrically to the double-stranded […]
A2058 cells were seeded, treated and harvested in the same way described in section ‘Apoptosis assay’; then, the cells were fixed in ice-cold 70% ethanol and kept at −20 °C for 24 h. The samples were centrifuged and resuspended in RNase (100 μg/ml, Sigma-Aldrich, St. Louis, MO, USA) containing citric acid/sodium phosphate buffer (pH = 7.8). Propidium iodide was added to the sample in 10 μg/ml concentration right before the flow cytometric measurements collecting at 25000 cells/sample.
Data were analyzed by CellQuest Pro and Flowing 2.5.1 (Turku Centre of Biotechnology, Turku, Finland) software. For aggregate/debris discrimination, FL2-Width vs FL2-Area plot […]
values to each population of cell cycle stages.
Measurement of cell adhesion […]
xCELLigence SP System ( ACEA Biosciences, San Diego, CA, USA).
The adhesion assay, analogous to the description in [5], was started with a background measurement as mentioned above in the section “Cell proliferation and cytotoxicity measurement”. In the next steps, the compounds were added in the concentration range of 10−8–10−5 M and the cells were loaded into the wells at a concentration of 10^4 cells/well. […]
NeuroProbe® MBB 96 chamber (NeuroProbe, Gaithersburg, MD, USA) by using polycarbonate filters with pore size 8 μm. To quantify the number of the chemotactically active cells, the alamarBlue-assay was applied as explained above. The ‘Chemotaxis index (Chtx. ind.) plotted in Figure 6 was calculated from the average of 8 parallel measurements and expressed as a percentage of control.

Structure (SMILES): COc1cccc2c1C(=O)c1c(O)c3c(c(O)c1C2=O)C[C@@](O)(C(C)=O)C[C@@H]3O[C@H]1C[C@H](N)[C@H](O)[C@H](C)O1 [daunorubicin]
- effect on cell adhesion (Delta Cell index) (A2058 cells; 10^−5 M): decrease
- concentrations at which adhesion of A2058 cells was increased (Delta Cell index) (A2058 cells; tested 10^−8–10^−5 M): 10^−8 to 10^−7 M
- percentage of S phase cells (A2058 melanoma cells; compared with control): increase
- percentage of cells in sub-G1 phase (A2058 melanoma cells; control 3.4%, average of two parallels): 14.1%
- percentage of cells in G2/M phase (A2058 melanoma cells; control 34.3%, average of two parallels): decrease
- percentage of cells in G1/G0 phase (A2058 melanoma cells; control 47.6%, average of two parallels): decrease

— publication PMC6178282, “Comparative cell biological study of in vitro antitumor and antimetastatic activity on melanoma cells of GnRH-III-containing conjugates modified with short-chain fatty acids” (Beilstein Journal of Organic Chemistry, 2018)
